Where “and” joins values, the source holds several entries; their conditions need not be identical. Equal entries are not always repeated.
Experiments:
[1] = target: ligand binding domain of the estrogen receptor beta chain (ERβLBD) that contained a point mutation at amino acid residue 418 (pm418) (Homo sapiens, UniProt Q92731); test: ER agonist cell assay (ERβ), Huh-7 co-transfection, luciferase; assay type: cell-based; settings: for EC50: Huh-7 cells co-transfected with pG5luc and ERβLBD(pm418), overnight incubation, luciferase; for ERβ % of Max E2 Response: percent of the maximum estradiol fold change, Huh-7, pG5luc and ERβLBD(pm418)
[2] = target: T1, ligand binding domain of the estrogen receptor alpha chain (ERαLBD) (Homo sapiens, UniProt P03372); test: ER agonist cell assay (ERα), Huh-7 co-transfection, luciferase; assay type: cell-based; settings: for EC50: Huh-7 cells co-transfected with pG5luc and ERαLBD, overnight incubation, luciferase; for ERα % of Max E2 Response: percent of the maximum estradiol fold change, Huh-7, pG5luc and ERαLBD
T1 construct: expressed in transfected cells; host or cells: Huh-7 human hepatoma cells, transient transfection with FuGENE 6
T1 sequence (P03372 311-547 limits assumed): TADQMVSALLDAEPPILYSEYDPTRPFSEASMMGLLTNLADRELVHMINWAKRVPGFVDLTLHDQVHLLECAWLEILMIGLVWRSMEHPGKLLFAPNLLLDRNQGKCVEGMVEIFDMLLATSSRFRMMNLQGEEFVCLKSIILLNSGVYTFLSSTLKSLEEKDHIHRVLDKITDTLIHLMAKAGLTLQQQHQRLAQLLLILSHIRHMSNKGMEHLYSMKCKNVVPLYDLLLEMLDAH

[3] = system: hairless female SKH, 1-hr mice; test: Animal model for reversal of wrinkles: skin thickness model, topical dosing, skin thickness and hyaluronic acid; assay type: in vivo, mouse; settings: three days
Source text: Animal Model for Reversal of Wrinkles
Uzuka et al. describes an increase in mouse back skin water content, hyaluronic acid (HA) content, and hyaluronic acid synthetase activity following topical application or subcutaneous injection of estradiol (Biochimica et Biophysica Acta, 627, 199-206, 1980; Biochimica et Biophysica Acta 673, 387-393, 1981). […] Thus, this model may be used to as a preliminary screen to assess the potential for estrogen modulators to alleviate wrinkles in human skin.
The skin thickness model uses hairless female SKH, 1-hr mice. Mice aged to approximately 11 weeks are introduced into the laboratory environment and acclimated for at least 1 week prior to use in the study may be used. Each group typically consisted of 7 animals that may be run in parallel with vehicle and the positive control estradiol. Based on binding and/or cellular assay data, compounds are chosen for screening in this model. Those compounds include the products of Examples, 2, 9, 15, 46, 47, 48, 51, 52, 61, 135, and 137. Prior to topical application to mouse dorsal skin, a sufficient quantity of each compound is dissolved in a solvent generally consisting of ethanol and propylene glycol (70/30% v/v) (vehicle) to achieve the final concentration specified in Table C below. Animals are dosed topically QD or BID, for three days. Each dose consisted of 100 microliters of vehicle or drug applied uniformly to the entire dorsal surface (˜18 cm^2). All animals are sacrificed approximately 18-24 hours after the final dose. Skin thickness (ST) is measured using a caliper. HA is extracted from the skin and quantitated using commercially-available enzyme-linked immunosorbent assays (ELISAs)(HA).
Data are presented as percent of the estradiol response after subtracting out the ST for vehicle-treated mouse skin. The estradiol response is set to 100% and the vehicle resoibse becines 0%.

[4] = 1% topical, BID, vehicle 0%, estradiol 100%

| Structure (SMILES) | melting point | EC50 [1] | ERβ % of Max E2 Response [1] | EC50 [2] | ERα % of Max E2 Response [2] | ST (skin thickness), percent of the estradiol response [3, 4] | HA (hyaluronic acid), percent of the estradiol response ([3]; 1% topical, QD) | ST (skin thickness), percent of the estradiol response ([3]; 1% topical, QD) | HA (hyaluronic acid), percent of the estradiol response ([3]; 0.5% topical, BID) | ST (skin thickness), percent of the estradiol response ([3]; 0.5% topical, BID) | further results |
| --- | --- | --- | --- | --- | --- | --- | --- | --- | --- | --- | --- |
| CCC(O)C1(c2onc(-c3ccc(O)cc3)c2-c2ccccc2)CC1 (racemic) [Example 47, (±)-4-{5-[1-(1-Hydroxy-propyl)-cyclopropyl]-4-phenyl-isoxazol-3-yl}-phenol] | 175 to 176 °C | 144 nM | 87.4% | 22.4 nM | 92% | 53% |  |  |  |  | HA (hyaluronic acid), percent of the estradiol response [3, 4]: 59% |
| OCC1(c2onc(-c3ccc(O)cc3)c2-c2ccccc2)CC1 [Example 2, 4-[5-(1-Hydroxymethyl-cyclopropyl)-4-phenyl-isoxazol-3-yl]-phenol] | 210 to 211 °C |  |  |  |  |  | 15% | 19% |  |  |  |
| C[C@@H](O)C1(c2onc(-c3ccc(O)cc3)c2-c2ccccc2)CC1 [Example 46, (R)-(−)-4-{5-[1-(1-Hydroxy-ethyl)-cyclopropyl]-4-phenyl-isoxazol-3-yl}-phenol] | 219 to 221 °C | 43.2 nM | 99.7% | 33.1 nM | 106% |  | 48% | 36% | 39% and 68% and 76% | 53% and 71% and 73% | HA (hyaluronic acid), percent of the estradiol response ([3]; 0.015% topical, BID): 11%; ST (skin thickness), percent of the estradiol response ([3]; 0.015% topical, BID): 20%; HA (hyaluronic acid), percent of the estradiol response ([3]; 0.05% topical, BID): 52%; ST (skin thickness), percent of the estradiol response ([3]; 0.05% topical, BID): 47%; HA (hyaluronic acid), percent of the estradiol response ([3]; 0.15% topical, BID): 55%; ST (skin thickness), percent of the estradiol response ([3]; 0.15% topical, BID): 65% |
| CC[C@@H](O)C1(c2onc(-c3ccc(O)cc3)c2-c2ccccc2)CC1 [Example 48, (R)-(−)-4-{5-[1-(1-Hydroxy-propyl)-cyclopropyl]-4-phenyl-isoxazol-3-yl}-phenol] | 163 to 164 °C | 84.7 nM | 71.8% | 31.3 nM | 88.8% | 72% and 89% | 47% and 42% | 64% and 41% | 84% | 78% | HA (hyaluronic acid), percent of the estradiol response ([3]; 0.03% topical, BID): 26%; ST (skin thickness), percent of the estradiol response ([3]; 0.03% topical, BID): 33%; HA (hyaluronic acid), percent of the estradiol response ([3]; 0.03% topical, QD): 18%; ST (skin thickness), percent of the estradiol response ([3]; 0.03% topical, QD): 13%; HA (hyaluronic acid), percent of the estradiol response ([3]; 0.1% topical, BID): 63%; ST (skin thickness), percent of the estradiol response ([3]; 0.1% topical, BID): 58%; HA (hyaluronic acid), percent of the estradiol response ([3]; 0.1% topical, QD): 32%; ST (skin thickness), percent of the estradiol response ([3]; 0.1% topical, QD): 29%; HA (hyaluronic acid), percent of the estradiol response ([3]; 0.3% topical, BID): 96%; ST (skin thickness), percent of the estradiol response ([3]; 0.3% topical, BID): 80%; HA (hyaluronic acid), percent of the estradiol response ([3]; 0.3% topical, QD): 41%; ST (skin thickness), percent of the estradiol response ([3]; 0.3% topical, QD): 57% |

From patent publication US7470715B2, “Estrogen modulators” (Pfizer Inc., priority 2005, dated 2008)
